Data reported in US20050107400A1, “Use of pyrazolopyridines as therapeutic compounds” (priority 2001, published 2005).

system: HSV-1; assay: HSV-1 replication in infected Vero 76 cells, DNA hybridization capture assay; assay type: cell-based, herpes simplex virus 1; details: Human alphaherpesvirus 1, Vero 76
Protocol: a) Tissue Culture and HSV Infection.
Vero 76 cells were maintained in MEM with Earle's salts, L-glutamine, 8% FBS (Hyclone, A-1111-L) and 100 units/mL Penicillin-100 μg/mL Streptomycin. For assay conditions, FBS was reduced to 2%. Cells are seeded into 96-well tissue culture plates at a density of 5×10^4 cells/well after being incubated for 45 min at 37° C. in the presence of HSV-1 or HSV-2 (MOI=0.001). Test compounds are added to the wells and the plates are incubated at 37° C. for 40-48 hours. Cell lysates are prepared as follows: media was removed and replaced with 150 μL/well 0.2 N NaOH with 1% Igepal CA 630 or NP-40. Plates were incubated up to 14 days at room temperature in a humidified chamber to prevent evaporation.
(b) Preparation of Detection DNA.
For the detection probe, a gel-purified, digoxigenin-labeled, […] PCR fragment of the HSV UL-15 sequence was utilized. PCR conditions included 0.5 μM primers, 180 μM dTTP, 20 μM dUTP-digoxigenin (Boehringer Mannheim 1558706), 200 μM each of dATP, dCTP, and dGTP, 1×PCR Buffer II (Perkin Elmer), 2.5 mM MgCl2, 0.025 units/μL of AmpliTaq Gold polymerase (Perkin Elmer), and 5 ng of gel-purified HSV DNA per 100 μL Extension conditions were 10 min at 95° C., followed by 30 cycles of 95° C. for 1 min, 55° C. for 30 sec, and 72° C. for 2 min. The amplification was completed with a 10-min incubation at 72° C. Primers were selected to amplify a 728 bp probe spanning a section of the HSV1 UL15 open reading frame (nucleotides 249-977). Single-stranded transcripts were purified with Promega M13 Wizard kits. The final product was mixed 1:1 with a mixture of 6 M GuSCN, 100 mM EDTA and 200 μg/mL herring sperm DNA and stored at 4° C.
(c) Preparation of Capture Plates.
The capture DNA plasmid (HSV UL13 region in pUC) was linearized by cutting with Xba I, denatured for 15 min at 95° C. and diluted immediately into Reacti-Bind DNA Coating Solution (Pierce, 17250, diluted 1:1 with TE buffer, pH 8) at 1 ng/μL. 75 μL/well were added to Corning (#3922 or 9690) white 96-well plates and incubated at room temperature for at least 4 hrs before washing twice with 300 μL/well 0.2×SSC/0.05% Tween-20 (SSC/T buffer). The plates were then incubated overnight at room temperature with 150 μL/well 0.2 N NaOH, 1% IGEPAL and 10 μg/mL herring sperm DNA.
Twenty-seven (27) μL of cell lysate was combined with 45 μL of hybridization solution (final concentration: 3M GuSCN, 50 mM EDTA, 100 μg/ml salmon sperm DNA, 5×Denhardt's solution, 0.25×APE, and 5 ng of the digoxigenin-labeled detection probe). APE is 1.5 M NH4-acetate, 0.15 M NH4H2 phosphate, and 5 mM EDTA adjusted to pH 6.0. Mineral oil (50 μL) was added to prevent evaporation. The hybridization plates were incubated at 95° C. for 10 minutes to denature the DNA, then incubated at 42° C. overnight. The wells were washed 6× with 300 μL/well SSC/T buffer then incubated with 75 μL/well anti-digoxigenin-HRP-conjugated antibody (Boehringer Mannheim 1207733, 1:5000 in TE) for 30 min at room temperature. The wells were washed 6× with 300 μL/well with PBS/0.05% Tween-20 before 75 μL/well SuperSignal LBA substrate (Pierce) was added. The plates were incubated at room temperature for 30 minutes and chemiluminescence was measured in a Wallac Victor reader.
The following results were obtained for HSV-1.

| SMILES | IC50 [nM] |
| --- | --- |
| CN1CCN(CCCNc2nccc(-c3c(-c4ccc(F)cc4)nn4cc(C(F)(F)F)ccc34)n2)CC1 [Example 32, N-{4-[2-(4-fluorophenyl)-6-(trifluoromethyl)pyrazolo-[1,5-a]pyridin-3-yl]pyrimidin-2-yl}-N-[3-(4-methylpiperazin-1-yl)propyl]amine] | 10000 |

same assay, conditions: Human alphaherpesvirus 1; HSV-1 in Vero 76 cells, MOI=0.001, 40-48 hours at 37° C.; read-out: IC50

| IC50 [nM] | SMILES |
| --- | --- |
| 1700 | CCCCNc1nccc(-c2c(-c3ccc(F)cc3)nn3cc(C(F)(F)F)ccc23)n1 [Example 31, N-Butyl-4-[2-(4-fluorophenyl)-6-trifluoromethylpyrazolo-[1,5-a]pyridin-3-yl]-2-pyrimidinamine] |
| 1400 | Fc1ccc(-c2nn3ccc(N4CCCC4)cc3c2-c2ccnc(NC3CCCC3)n2)cc1 [Example 37, N-Cyclopentyl-4-[2-(4-fluorophenyl)-5-(1-pyrrolidinyl)pyrazolo[1,5-a]pyridin-3-yl]-2-pyrimidinamine] |
| 1700 | O=C1CCCN1CCCNc1cc(-c2c(-c3ccc(F)cc3)nn3ccccc23)ccn1 [Example 39, 1-[3-({4-[2-(4-fluorophenyl)-pyrazolo[1,5-a]pyridin-3-yl]-2-pyridinyl}amino)propyl]-2-pyrrolidinone] |
| 5300 | CNc1cc(-c2c(-c3ccc(F)cc3)nn3ccccc23)cc(F)n1 [Example 40, 6-Fluoro-4-[2-(4-fluorophenyl)-pyrazolo[1,5-a]pyridin-3-yl]-N-methyl-2-pyridinamine] |
| 21600 | CN(C)c1cc(-c2c(-c3ccc(F)cc3)nn3cccc(F)c23)ccn1 [Example 41, 4-[4-Fluoro-2-(4-fluorophenyl)-pyrazolo[1,5-a]pyridin-3-yl]-N,N-dimethyl-2-pyridinamine] |
| 5000 | C=CCNc1cc(-c2c(-c3ccc(F)cc3)nn3ccccc23)ccn1 [Example 42, N-Allyl-4-[2-(4-fluorophenyl)pyrazolo-[1,5-a]pyridin-3-yl]-2-pyridinamine] |
| 2400 | Fc1ccc(-c2nn3cc(Cl)ccc3c2-c2ccc(NC3CC3)nc2)cc1 [Example 43, 5-[6-Chloro-2-(4-fluorophenyl)-pyrazolo[1,5-a]pyridin-3-yl]-N-cyclopropyl-2-pyridinamine] |
| 6300 | OCCCNc1cc(-c2c(-c3ccc(F)cc3)nn3ccccc23)c(Br)cn1 [Example 44, 3-({5-Bromo-4-[2-(4-fluorophenyl)-pyrazolo[1,5-a]pyridin-3-yl]-2-pyridinyl}amino)-1-propanol] |
| 2600 | COC(=O)c1ccc2c(-c3ccnc(NCCCOC(C)=O)c3)c(-c3ccc(F)cc3)nn2c1 [Example 45, Methyl 3-(2-{[3-(acetyloxy)propyl]-amino}-4-pyridinyl)-2-(4-fluorophenyl)pyrazolo[1,5-a]pyridine-6-carboxylate] |
| 2900 | Fc1ccc(-c2nn3ccccc3c2-c2cc(-c3ccccc3)nc(NC3CCCC3)n2)cc1 [Example 49, N-Cyclopentyl-4-[2-(4-fluorophenyl)pyrazolo[1,5-a]pyridin-3-yl]-6-phenyl-2-pyrimidinamine] |
| 1000 | CCCCNc1nccc(-c2c(-c3ccc(F)cc3)nn3c(C)cccc23)n1 [Example 85, N-Butyl-4-[2-(4-fluorophenyl)-7-methylpyrazolo[1,5-a]pyridin-3-yl]-2-pyrimidinamine] |

The next lines start with the compound.

| SMILES | IC50 [nM] |
| --- | --- |
| Cc1ccc2c(-c3ccnc(NC4CCCC4)n3)c(-c3ccc(F)cc3)nn2c1 [Example 34, N-Cyclopentyl-4-[2-(4-fluorophenyl)-6-methylpyrazolo[1,5-a]pyridin-3-yl]-2-pyrimidinamine] | 2000 |
| Fc1ccc(-c2nn3cc(CNC4CCCC4)ccc3c2-c2ccnc(NC3CCCC3)n2)cc1 [Example 35, N-Cyclopentyl-4-[6-[(cyclopentylamino)methyl]-2-(4-fluorophenyl)-pyrazolo[1,5-a]pyridin-3-yl]-2-pyrimidinamine] | 4500 |
| Fc1ccc(-c2nn3ccc(Cl)cc3c2-c2ccnc(NC3CCCC3)n2)cc1 [Example 36, 4-[5-Chloro-2-(4-fluorophenyl)pyrazolo[1,5-a]pyridin-3-yl]-N-cyclopentyl-2-pyrimidinamine] | 5000 |
| COc1ccc(-c2nn3ccc(Cl)cc3c2-c2ccnc(NC3CCCC3)n2)cc1 [Example 38, 4-[5-Chloro-2-(4-methoxyphenyl)pyrazolo[1,5-a]pyridin-3-yl]-N-cyclopentyl-2-pyrimidinamine] | 3800 |
| CN(C)C(=O)c1ccc2c(-c3ccnc(NC4CC4)n3)c(-c3ccc(F)cc3)nn2c1 [Example 47, 3-[2-(Cyclopropylamino)-4-pyrimidinyl]-2-(4-fluorophenyl)-N,N-dimethylpyrazolo[1,5-a]pyridine-6-carboxamide] | 1000 |
| O=C(NC1CC1)c1ccc2c(-c3ccnc(NC4CC4)n3)c(-c3ccc(F)cc3)nn2c1 [Example 48, N-Cyclopropyl-3-[2-(cyclopropylamino)-4-pyrimidinyl]-2-(4-fluorophenyl)pyrazolo[1,5-a]pyridine-6-carboxamide] | 900 |
| CCCCNc1nccc(-c2c(-c3ccc(F)cc3)nn3c(OCCF)cccc23)n1 [Example 57, N-Butyl-4-[7-(2-fluoroethoxy)-2-(4-fluorophenyl)pyrazolo[1,5-a]pyridin-3-yl]-2-pyrimidinamine] | 2500 |
| CSc1nccc(-c2c(-c3ccc(F)cc3)nn3c(OCC(F)(F)F)cccc23)n1 [Example 59, 2-(4-Fluorophenyl)-3-(4-(2-methylthio)pyrimidinyl)-7-(2,2,2-trifluoroethoxy)pyrazolo[1,5-a]pyridine] | 10000 |
| CCCCNc1nccc(-c2c(-c3ccc(F)cc3)nn3c(OCC(F)(F)F)cccc23)n1 [Example 60, N-Butyl-4-[2-(4-fluorophenyl)-7-(2,2,2-trifluoroethoxy)pyrazolo[1,5-a]pyridin-3-yl]-2-pyrimidinamine] | 5000 |
| Fc1ccc(-c2nn3c(OCC(F)(F)F)cccc3c2-c2ccnc(NC3CC3)n2)cc1 [Example 62, N-Cyclopropyl-4-[2-(4-fluorophenyl)-7-(2,2,2-trifluoroethoxy)pyrazolo [1,5-a]pyridin-3-yl]-2-pyrimidinamine] | 2000 |
| Fc1ccc(-c2nn3c(OCC(F)(F)F)cccc3c2-c2ccnc(NC3CCCCC3)n2)cc1 [Example 64, N-Cyclohexyl-4-[2-(4-fluorophenyl)-7-(2,2,2-trifluoroethoxy)pyrazolo[1,5-a]pyridin-3-yl]-2-pyrimidinamine] | 900 |
| COc1nccc(-c2c(-c3ccc(F)cc3)nn3c(OCC(F)(F)F)cccc23)n1 [Example 66, 2-(4-Fluorophenyl)-3-(4-(2-methyloxy)pyrimidinyl)-7-(2,2,2-trifluoroethoxy)pyrazolo[1,5-a]pyridine] | 25000 |
| Fc1ccc(-c2nn3c(OCC(F)(F)F)cccc3c2-c2ccnc(Oc3ccccc3)n2)cc1 [Example 67, 2-(4-Fluorophenyl)-3-(4-(2-phenyloxy)pyrimidinyl)-7-(2,2,2-trifluoroethoxy)pyrazolo[1,5-a]pyridine] | 15000 |
| Fc1ccc(-c2nn3c(OCC(F)(F)F)cccc3c2-c2ccnc(OCC(F)(F)F)n2)cc1 [Example 68, 2-(4-Fluorophenyl)-3-(4-(2-(2,2,2-trifluoroethoxy))pyrimidinyl)-7-(2,2,2-trifluoroethoxy)pyrazolo[1,5-a]pyridine] | 15000 |
| Cc1c(C(=O)NC2CC2)ccc2c(-c3ccnc(NC4CCCC4)n3)c(-c3ccc(F)cc3)nn12 [Example 83, 3-[2-(Cyclopentylamino)-4-pyrimidinyl]-N-cyclopropyl-2-(4-fluorophenyl)-7-methylpyrazolo[1,5-a]pyridine-6-carboxamide] | 1000 |
| CCCCNc1nccc(-c2c(-c3ccc(F)cc3)nn3c(CCCC)cccc23)n1 [Example 84, N-Butyl-4-[7-butyl-2-(4-fluorophenyl)pyrazolo[1,5-a]pyridin-3-yl]-2-pyrimidinamine] | 600 |
